Literature values in patent publication US20080146525A1 (priority 2006, published 2008).

Assays:
[1] = test system: extra-cellular acetylcholine and dopamine levels; settings: versus compositions commonly used to treat Alzheimer's disease; rats
[2] = administered orally
[3] = test system: nerve growth factor
[4] = healthy adolescents
[5] = animal models and humans
[6] = test system: rats
[7] = test system: neurotransmitters; settings: humans

C/C=C1\[C@H]2C=C(C)C[C@]1(N)c1ccc(=O)[nH]c1C2 [Huperzine-A]
ability to increase extra-cellular acetylcholine and dopamine levels [1]: greater ability to increase extra-cellular acetylcholine and dopamine levels | bioavailability [2]: good bioavailability | amount of nerve growth factor [3]: increase the amount of nerve growth factor | memory and learning [4]: improve memory and learning | effect on memory deficits [5]: improves memory deficits

CC(=C(CCOC(=O)C(C)C)SSC(CCOC(=O)C(C)C)=C(C)N(C=O)Cc1cnc(C)nc1N)N(C=O)Cc1cnc(C)nc1N (stereo in doubt) [Sulbutiamine]
memory effect [6]: memory enhancing effects

N[C@@H](Cc1ccc(O)cc1)C(=O)O [Tyrosine]
neurotransmitters after oral administration [7]: increased of neurotransmitters
